# Measurements published in ChEMBL document CHEMBL1201862, “PubChem BioAssay data set” (2004).
# Active and inactive are the calls of the source.
# Tests used:
# Large T antigen = Large T antigen (Simian virus 40, UniProt P03070); assay type: functional, Betapolyomavirus macacae;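 note: Confirmatory-stage PubChem screen for compounds that inhibit SV40 T antigen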
# [1] = target: T1, Rac GTPase-activating protein 1 (Homo sapiens, UniProt Q9H0H5); experiment: MgcRacGAP GTPase-activating activity inhibitors, confirmation, biochemical, ADP Hunter fluorescence, primary and confirmatory (AID 624330); assay type: functional
# T1 sequence (Q9H0H5 whole entry): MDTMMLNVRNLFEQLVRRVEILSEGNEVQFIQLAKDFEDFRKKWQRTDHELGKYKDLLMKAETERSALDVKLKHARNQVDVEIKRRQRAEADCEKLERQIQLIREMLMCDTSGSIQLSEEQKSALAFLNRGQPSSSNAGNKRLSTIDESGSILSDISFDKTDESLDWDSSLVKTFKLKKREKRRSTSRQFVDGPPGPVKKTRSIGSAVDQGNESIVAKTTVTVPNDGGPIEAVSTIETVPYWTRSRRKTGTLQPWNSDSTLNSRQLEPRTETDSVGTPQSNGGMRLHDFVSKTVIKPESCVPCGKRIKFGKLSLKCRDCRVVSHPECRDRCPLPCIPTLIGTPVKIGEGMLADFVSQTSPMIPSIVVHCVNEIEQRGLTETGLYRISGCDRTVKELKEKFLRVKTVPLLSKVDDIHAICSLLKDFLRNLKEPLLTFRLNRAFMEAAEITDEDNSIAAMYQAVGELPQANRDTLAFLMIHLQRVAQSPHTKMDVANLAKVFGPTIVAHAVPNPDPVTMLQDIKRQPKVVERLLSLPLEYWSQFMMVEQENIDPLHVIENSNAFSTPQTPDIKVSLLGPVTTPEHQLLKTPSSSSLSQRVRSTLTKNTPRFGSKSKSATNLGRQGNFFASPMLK
# H9c2 = experiment: cells; assay type: functional, cell-based; settings: Rattus norvegicus, H9c2, Myocardium;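 note: confirmatory concentration-response retest of ultra-high-throughput screening hits for modulation of myocardial damage; cell death induced by hydrogen peroxide oxidative stress; compound pretreatment for 60 min then peroxide exposure for 2 h; potency is for protecting the cells against peroxide damage rather than for killing them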
# cells [2] = assay type: functional
# cells [3] = assay type: functional, cell-based
# [4] = target: T2, Heat shock factor protein 1 (Mus musculus, UniProt P38532); experiment: inhibition of MG132-induced HSE-luciferase signal, confirmation, cell-based, NIH3T3, luminescence, dose retest (AID 2382); assay type: functional;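 note: NIH3T3 fibroblasts with HSF1-driven luciferase reporter stressed by proteasome inhibitor MG132; luminescence from HSF1-driven luciferase expression after 8 hours of MG132 stress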
# T2 sequence (P38532 whole entry): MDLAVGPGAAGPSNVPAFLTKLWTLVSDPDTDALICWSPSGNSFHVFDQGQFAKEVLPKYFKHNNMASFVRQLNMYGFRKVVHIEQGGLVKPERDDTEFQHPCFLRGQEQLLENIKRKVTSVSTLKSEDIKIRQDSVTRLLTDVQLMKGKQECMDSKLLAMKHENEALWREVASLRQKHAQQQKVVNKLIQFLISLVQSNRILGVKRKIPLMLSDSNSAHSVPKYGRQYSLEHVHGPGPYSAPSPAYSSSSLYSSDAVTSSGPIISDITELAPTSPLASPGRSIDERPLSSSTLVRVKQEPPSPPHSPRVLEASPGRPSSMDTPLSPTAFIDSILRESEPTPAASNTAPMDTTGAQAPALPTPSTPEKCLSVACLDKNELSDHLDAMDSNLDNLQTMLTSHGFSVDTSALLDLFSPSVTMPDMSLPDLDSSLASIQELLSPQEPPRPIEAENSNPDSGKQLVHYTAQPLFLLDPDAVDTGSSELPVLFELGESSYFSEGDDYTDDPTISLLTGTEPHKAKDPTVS
# cells [5] = assay type: functional, cell-based; remark: listed apart in the source
# Fatty acid synthase = Fatty acid synthase (Homo sapiens, UniProt P49327); experiment: FAS thioesterase domain inhibitors, dose response, biochemical, kinetic fluorescence intensity (AID 624326); assay type: functional;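 note: rate of fluorescence rise from hydrolysis of a fluorogenic O-methyl fluorescein ester substrate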
# Fatty acid synthase, sequence (P49327 whole entry, the tested form may be a part): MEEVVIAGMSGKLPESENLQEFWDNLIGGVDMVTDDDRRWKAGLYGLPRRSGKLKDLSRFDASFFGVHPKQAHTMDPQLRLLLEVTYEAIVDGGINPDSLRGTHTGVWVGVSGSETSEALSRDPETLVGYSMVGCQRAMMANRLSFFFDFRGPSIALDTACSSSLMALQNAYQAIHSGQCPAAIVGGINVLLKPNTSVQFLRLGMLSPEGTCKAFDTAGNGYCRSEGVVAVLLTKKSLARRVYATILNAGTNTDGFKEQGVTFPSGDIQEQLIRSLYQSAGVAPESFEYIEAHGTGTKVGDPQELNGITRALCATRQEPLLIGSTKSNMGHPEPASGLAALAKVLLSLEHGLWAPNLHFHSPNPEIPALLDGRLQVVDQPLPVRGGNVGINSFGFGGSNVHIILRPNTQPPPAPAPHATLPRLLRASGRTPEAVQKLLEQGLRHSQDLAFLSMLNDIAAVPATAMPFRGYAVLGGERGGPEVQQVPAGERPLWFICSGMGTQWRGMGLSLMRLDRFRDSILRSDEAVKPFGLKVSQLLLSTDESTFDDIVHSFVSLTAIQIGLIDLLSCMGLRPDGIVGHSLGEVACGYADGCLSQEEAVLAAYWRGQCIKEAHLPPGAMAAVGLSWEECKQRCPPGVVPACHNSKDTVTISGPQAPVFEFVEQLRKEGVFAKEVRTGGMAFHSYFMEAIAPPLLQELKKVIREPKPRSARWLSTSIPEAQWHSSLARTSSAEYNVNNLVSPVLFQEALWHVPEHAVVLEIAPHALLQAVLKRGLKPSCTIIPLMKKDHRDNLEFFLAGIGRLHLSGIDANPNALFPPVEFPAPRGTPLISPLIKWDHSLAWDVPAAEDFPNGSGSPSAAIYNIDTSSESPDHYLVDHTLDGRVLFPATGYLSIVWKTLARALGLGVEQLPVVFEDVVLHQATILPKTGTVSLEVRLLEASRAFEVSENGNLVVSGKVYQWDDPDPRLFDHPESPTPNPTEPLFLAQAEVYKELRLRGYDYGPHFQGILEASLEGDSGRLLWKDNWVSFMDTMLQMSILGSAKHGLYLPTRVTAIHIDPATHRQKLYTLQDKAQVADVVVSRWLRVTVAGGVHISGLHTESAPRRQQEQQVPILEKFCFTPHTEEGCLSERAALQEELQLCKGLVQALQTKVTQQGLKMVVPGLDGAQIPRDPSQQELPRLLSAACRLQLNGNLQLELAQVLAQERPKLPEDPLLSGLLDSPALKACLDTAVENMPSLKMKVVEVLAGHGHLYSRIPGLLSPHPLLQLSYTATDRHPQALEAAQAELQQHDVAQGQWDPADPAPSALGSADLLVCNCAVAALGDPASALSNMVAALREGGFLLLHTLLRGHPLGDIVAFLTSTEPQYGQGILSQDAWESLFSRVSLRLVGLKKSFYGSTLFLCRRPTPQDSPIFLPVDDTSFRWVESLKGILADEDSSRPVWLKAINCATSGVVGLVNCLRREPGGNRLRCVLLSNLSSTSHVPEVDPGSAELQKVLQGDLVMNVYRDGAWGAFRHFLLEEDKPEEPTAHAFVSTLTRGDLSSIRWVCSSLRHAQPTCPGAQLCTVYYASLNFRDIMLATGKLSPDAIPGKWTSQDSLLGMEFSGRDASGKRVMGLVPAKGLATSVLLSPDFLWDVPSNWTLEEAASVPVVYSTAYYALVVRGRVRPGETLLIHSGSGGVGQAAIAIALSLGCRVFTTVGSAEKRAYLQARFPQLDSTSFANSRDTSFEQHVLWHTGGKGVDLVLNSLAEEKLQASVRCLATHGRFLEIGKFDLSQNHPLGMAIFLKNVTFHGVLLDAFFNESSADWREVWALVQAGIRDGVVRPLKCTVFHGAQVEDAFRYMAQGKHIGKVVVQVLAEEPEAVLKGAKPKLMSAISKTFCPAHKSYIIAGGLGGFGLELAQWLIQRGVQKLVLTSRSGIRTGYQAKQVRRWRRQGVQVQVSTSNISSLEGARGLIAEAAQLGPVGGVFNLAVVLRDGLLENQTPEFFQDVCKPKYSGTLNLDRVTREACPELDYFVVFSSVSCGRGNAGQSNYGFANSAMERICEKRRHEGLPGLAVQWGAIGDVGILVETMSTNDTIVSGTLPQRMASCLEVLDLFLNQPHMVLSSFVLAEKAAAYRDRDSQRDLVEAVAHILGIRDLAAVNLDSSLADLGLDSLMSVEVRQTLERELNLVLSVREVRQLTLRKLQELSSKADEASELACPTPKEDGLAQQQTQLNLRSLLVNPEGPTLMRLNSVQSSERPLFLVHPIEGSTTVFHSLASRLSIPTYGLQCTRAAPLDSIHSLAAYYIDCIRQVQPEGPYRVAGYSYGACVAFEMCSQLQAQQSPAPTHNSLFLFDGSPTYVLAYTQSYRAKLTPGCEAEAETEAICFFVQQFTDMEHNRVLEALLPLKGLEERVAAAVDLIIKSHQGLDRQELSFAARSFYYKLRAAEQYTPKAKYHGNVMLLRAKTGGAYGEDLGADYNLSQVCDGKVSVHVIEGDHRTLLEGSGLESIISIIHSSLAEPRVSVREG
# [6] = target: T3, Replicative DNA helicase DnaB (Mycobacterium tuberculosis, UniProt P9WMR3); experiment: DnaB intein splicing inhibitors, dose response, biochemical, cell-free fluorescence (AID 449749); assay type: functional
# T3 sequence (P9WMR3 whole entry): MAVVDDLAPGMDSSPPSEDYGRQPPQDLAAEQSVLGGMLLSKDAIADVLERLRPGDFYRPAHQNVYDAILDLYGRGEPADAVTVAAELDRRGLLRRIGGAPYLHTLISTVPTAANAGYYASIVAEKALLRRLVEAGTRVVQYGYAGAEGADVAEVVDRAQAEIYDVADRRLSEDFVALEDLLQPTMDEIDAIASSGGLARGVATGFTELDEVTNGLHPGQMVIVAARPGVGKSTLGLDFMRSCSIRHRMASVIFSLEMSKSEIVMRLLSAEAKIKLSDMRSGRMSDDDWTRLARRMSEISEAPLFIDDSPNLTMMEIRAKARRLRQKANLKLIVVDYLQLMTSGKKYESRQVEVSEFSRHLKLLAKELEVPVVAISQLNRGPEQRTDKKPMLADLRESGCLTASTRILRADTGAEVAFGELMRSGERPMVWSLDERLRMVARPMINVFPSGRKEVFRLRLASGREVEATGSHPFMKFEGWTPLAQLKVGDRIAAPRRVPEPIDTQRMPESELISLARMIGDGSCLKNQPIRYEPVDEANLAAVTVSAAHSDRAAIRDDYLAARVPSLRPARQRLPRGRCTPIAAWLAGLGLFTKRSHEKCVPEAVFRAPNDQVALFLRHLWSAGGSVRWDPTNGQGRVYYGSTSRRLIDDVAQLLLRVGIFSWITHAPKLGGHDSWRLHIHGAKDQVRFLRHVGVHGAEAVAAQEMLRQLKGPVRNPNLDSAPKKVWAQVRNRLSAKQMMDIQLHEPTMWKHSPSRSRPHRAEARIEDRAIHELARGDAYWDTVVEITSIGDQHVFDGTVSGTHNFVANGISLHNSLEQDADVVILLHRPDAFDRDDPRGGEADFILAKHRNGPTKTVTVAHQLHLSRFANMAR
# Protein RecA = target: T4, Protein RecA (Mycobacterium tuberculosis, UniProt P9WHJ3); experiment: Fluorescence Cell-Free Homogeneous Dose Retest to Identify Inhibitors of RecA-Intein Splicing Activity. [Related pubchem assays (depositor defined):AID2097, AID2223, AID489010, AID492950]; assay type: functional
# T4 sequence (P9WHJ3 whole entry): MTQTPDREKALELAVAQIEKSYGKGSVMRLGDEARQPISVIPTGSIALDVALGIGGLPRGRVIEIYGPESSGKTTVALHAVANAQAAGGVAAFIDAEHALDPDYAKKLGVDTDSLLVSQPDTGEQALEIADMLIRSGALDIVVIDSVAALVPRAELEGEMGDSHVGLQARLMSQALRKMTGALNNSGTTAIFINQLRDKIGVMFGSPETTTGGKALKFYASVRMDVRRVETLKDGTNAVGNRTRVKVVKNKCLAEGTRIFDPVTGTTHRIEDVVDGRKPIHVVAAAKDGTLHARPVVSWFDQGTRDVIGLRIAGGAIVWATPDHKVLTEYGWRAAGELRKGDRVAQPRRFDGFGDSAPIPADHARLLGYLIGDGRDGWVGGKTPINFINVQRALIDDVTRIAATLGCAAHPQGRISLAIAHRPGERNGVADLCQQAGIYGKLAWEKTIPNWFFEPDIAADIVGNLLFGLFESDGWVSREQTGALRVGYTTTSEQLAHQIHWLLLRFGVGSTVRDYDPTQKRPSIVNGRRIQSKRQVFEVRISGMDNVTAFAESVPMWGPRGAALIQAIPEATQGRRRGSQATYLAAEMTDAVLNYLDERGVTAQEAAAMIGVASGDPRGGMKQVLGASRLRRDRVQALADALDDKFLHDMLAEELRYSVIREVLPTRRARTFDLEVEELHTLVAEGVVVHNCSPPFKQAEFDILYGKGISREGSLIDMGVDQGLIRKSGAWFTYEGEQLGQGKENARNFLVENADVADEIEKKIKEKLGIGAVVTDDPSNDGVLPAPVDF
# [7] = intracellular Trypanosoma cruzi inhibitors in host cells – cell-based, plate reader, cherry-pick samples, set 3, dose response (AID 651818); assay type: functional;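 note: compounds incubated with infected cells for about four days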
# [8] = P. falciparum Dd2 growth inhibitors, dose response, SYBR Green, cherry-picked samples (AID 1159567); assay type: functional, cell-based
# [9] = target: FAD-linked sulfhydryl oxidase ALR (Homo sapiens, UniProt P55789); experiment: inhibitors of human ALR sulfhydryl oxidase, dose response, biochemical, H2O2 detection, luminescence, cherry-pick (AID 493248)
# FAD-linked sulfhydryl oxidase ALR, sequence (P55789 whole entry): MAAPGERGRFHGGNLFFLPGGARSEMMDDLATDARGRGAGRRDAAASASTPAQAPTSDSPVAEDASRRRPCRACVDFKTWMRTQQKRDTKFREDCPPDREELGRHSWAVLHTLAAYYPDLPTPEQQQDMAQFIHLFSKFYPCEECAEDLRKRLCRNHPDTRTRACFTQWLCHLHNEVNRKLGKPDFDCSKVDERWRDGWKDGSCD
# Large T antigen, sequence (P03070 whole entry): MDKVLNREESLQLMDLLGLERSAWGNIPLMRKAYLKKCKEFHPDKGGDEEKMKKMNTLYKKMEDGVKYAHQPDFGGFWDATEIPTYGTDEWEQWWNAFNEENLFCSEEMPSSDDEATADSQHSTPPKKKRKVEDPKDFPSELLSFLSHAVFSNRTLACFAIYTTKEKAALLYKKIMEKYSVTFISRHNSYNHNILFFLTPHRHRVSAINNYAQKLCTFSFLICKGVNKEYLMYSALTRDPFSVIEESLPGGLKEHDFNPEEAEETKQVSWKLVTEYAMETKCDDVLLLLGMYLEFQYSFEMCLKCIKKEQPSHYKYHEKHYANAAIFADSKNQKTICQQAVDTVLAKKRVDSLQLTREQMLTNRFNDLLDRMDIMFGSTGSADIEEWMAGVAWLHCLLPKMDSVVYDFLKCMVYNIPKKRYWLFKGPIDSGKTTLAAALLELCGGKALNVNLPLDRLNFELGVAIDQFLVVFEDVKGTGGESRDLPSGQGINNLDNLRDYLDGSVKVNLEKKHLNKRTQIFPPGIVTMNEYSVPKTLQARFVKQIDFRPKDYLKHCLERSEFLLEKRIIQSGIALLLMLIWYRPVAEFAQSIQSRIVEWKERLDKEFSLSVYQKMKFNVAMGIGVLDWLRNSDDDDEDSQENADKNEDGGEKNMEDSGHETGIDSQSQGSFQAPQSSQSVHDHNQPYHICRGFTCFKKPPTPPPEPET
compound,measurement,setting,value
O=c1cc(-c2ccc(O)c(O)c2)oc2cc(O)c(C3OC(CO)C(O)C(O)C3O)c(O)c12 (stereo unspecified),IC50,Large T antigen,5.23 µM (active)
same,IC50,[1],42.9 µM (active)
O=C(NCc1ccco1)c1cc(-c2cccnc2)nc2ccc(Cl)cc12,IC50,H9c2,> 79 µM (inactive)
COc1ccc(N2C(=O)CC(Sc3n[nH]c(-c4cccc(C)c4)n3)C2=O)cc1 (stereo unspecified),IC50,Large T antigen,76.5 µM (active)
CCOc1cc(N2CCOCC2)c(OCC)cc1NC(=O)COC(=O)CCOc1ccc(C)cc1,IC50,Large T antigen,> 100 µM (active)
O=C(NN=C(Cc1ccccc1)Cc1ccccc1)c1ccncc1,IC50,cells [2],0.17 µM (active)
O=C(O)c1ccccc1C(=O)NC1=NN(c2ccccc2)CC1,IC50,Large T antigen,14.2 µM (active)
CCCCCn1c(=O)c(C(=O)NCc2ccccn2)c(O)c2ccccc21,IC50,H9c2,5.88 µM (active)
C=CCc1c(C)nc2c(-c3ccccc3)cnn2c1N1CCOCC1,EC50,cells [3],> 350 µM (not active)
same,EC50,[4],> 195 µM (not active)
same,EC50,cells [5],> 350 µM (not active)
Cc1nc(N2CCN(c3ccccn3)CC2)c2c(C)c(C(=O)Nc3ccc(F)cc3)sc2n1,IC50,H9c2,> 79 µM (inactive)
COc1cc(C(=O)NCCCNc2nc3cc(C)cc(C)c3cc2C#N)cc(OC)c1OC,IC50,H9c2,> 79 µM (inactive)
Cc1cc(C)c(S(=O)(=O)N2CCN(C(=O)c3cc(O)nc4ccccc34)CC2)c(C)c1,IC50,H9c2,> 79 µM (inactive)
CC(C)(C)OC(=O)NCCCC[C@H](NC(=O)c1[nH]cnc1C(=O)NCC(=O)OCc1ccccc1)C(=O)OC(C)(C)C,IC50,Fatty acid synthase,0.16 µM (active)
Cc1ccc(NC(=O)COC(=O)C2=COCCO2)c([N+](=O)[O-])c1,IC50,cells [2],3.39 µM (active)
COc1ccc(C(=O)Nc2ccc(O)c3ccccc23)cc1,IC50,Large T antigen,30.8 µM (active)
same,AC50,[6],1.22 µM (active)
same,EC50,Protein RecA,0.0744 µM (active)
CCC(Oc1ccccc1)C(=O)Nc1ccccc1C(=O)N1CCCCC1 (stereo unspecified),IC50,H9c2,23.8 µM (active)
COc1cc(NC(=O)c2ccc(-c3cn[nH]c3)c3ccoc23)cc(OC)c1OC,IC50,H9c2,> 79 µM (inactive)
C[C@H]1CN([C@@H](C)CO)C(=O)c2cc(NS(=O)(=O)c3ccccc3)ccc2O[C@H]1CN(C)Cc1ccc(Cl)c(Cl)c1,AC50,[7],5.12 µM (active)
C[C@@H]1CN([C@H](C)CO)C(=O)Cc2cc(NC(=O)Cc3cn(C)c4ccccc34)ccc2O[C@H]1CN(C)Cc1ccc(Cl)c(Cl)c1,AC50,[7],3.78 µM (active)
C[C@H](CO)N1C[C@H](C)[C@H](CN(C)Cc2ccc(C(F)(F)F)cc2)Oc2ccc(NC(=O)Nc3ccc4c(c3)OCO4)cc2CC1=O,AC50,[7],5.85 µM (active)
C[C@@H]1CN([C@H](C)CO)C(=O)Cc2cc(NC(=O)Nc3ccc(C(F)(F)F)cc3)ccc2O[C@@H]1CN(C)S(=O)(=O)c1ccc(F)cc1,AC50,[7],7.08 µM (active)
C[C@@H]1CN([C@H](C)CO)C(=O)c2cccc(NC(=O)NC3CCCCC3)c2O[C@H]1CN(C)Cc1ccc(C(F)(F)F)cc1,AC50,[7],1.86 µM (active)
C[C@@H]1CN([C@H](C)CO)C(=O)Cc2cc(NC(=O)Nc3ccc4c(c3)OCO4)ccc2O[C@@H]1CN(C)Cc1ccc(Cl)c(Cl)c1,AC50,[7],3.71 µM (active)
C[C@H](CO)N1C[C@H](C)[C@H](CN(C)CC2CCCCC2)Oc2c(NC(=O)c3nc4ccccc4s3)cccc2C1=O,AC50,[7],3.31 µM (active)
C[C@@H]1CN([C@@H](C)CO)C(=O)Cc2cc(NC(=O)Nc3ccc(C(F)(F)F)cc3)ccc2O[C@@H]1CN(C)S(=O)(=O)c1ccccc1,AC50,[7],3.88 µM (active)
COc1cccc(C(C[N+](=O)[O-])c2c(C)[nH]n(-c3ccccc3)c2=O)c1 (stereo unspecified),EC50,cells [3],> 350 µM (not active)
same,EC50,cells [5],> 350 µM (not active)
same,AC50,[6],16.5 µM (active)
same,EC50,Protein RecA,2.25 µM (active)
CO[C@@H]1CN(C)C(=O)c2ccc(NC(=O)Nc3ccc(F)cc3)cc2OC[C@@H](C)N(C(=O)c2ccc(F)cc2)C[C@H]1C,AC50,[8],8.03 µM (active)
CCN(CC)S(=O)(=O)c1ccc(N/N=C/c2ccc(O)cc2)nc1,IC50,Large T antigen,11.5 µM (active)
same,IC50,[1],31.5 µM (active)
COc1cc(/C=N\NC(=O)CNC(=O)c2cccc([N+](=O)[O-])c2)ccc1O,IC50,Large T antigen,3.75 µM (active)
same,AC50,[9],2.41 µM (active)
same,IC50,[1],16.5 µM (active)
O=C(Nc1ccc(F)cc1)N1CC(=O)N2[C@H](C1)[C@@H](c1ccc(C#Cc3ccc(F)cc3)cc1)[C@@H]2CO,AC50,[8],4.49 µM (active)
CO[C@H]1CN(C)C(=O)c2ccc(NS(=O)(=O)CC(F)(F)F)cc2OC[C@@H](C)N(Cc2nccs2)C[C@H]1C,AC50,[8],> 39 µM (inactive)
